Consider eleven compounds from ChEMBL document CHEMBL1152465, “Comparative evaluation of the inhibitory activities of a series of pyrimidinedione congeners that inhibit human immunodeficiency virus types 1 and 2” (Antimicrob Agents Chemother, 2008).

The nature of data set [1]: Cytotoxicity against human HeLa cells expressing CD4-LTR by XTT assay. The conditions noted are these: read-out: TC50 (the source's name). Format: cell-based.
Data set [2] has as its system Human immunodeficiency virus 2. The data set is described as follows: Antiviral activity against HIV2 ROD infected in human CEM-SS cells assessed as inhibition of virus-induced cytopathic effect by XTT assay. The data set is classed as functional, organism-based, ISOLATE ROD.
In data set [3] the test system is Human immunodeficiency virus 2. The data set is described as follows: Antiviral activity against HIV2 assessed as inhibition of viral single round replication at early time point. The data set is classed as functional, organism-based.
Data set [4] is described as follows: Therapeutic index, ratio of TC50 human HeLa cells expressing CD4-LTR to EC50 for HIV1 entry inhibition in human HeLa cells expressing CD4-LTR. The data set is classed as cell-based. As to conditions: read-out: TI.
The test system of data set [5] is Human immunodeficiency virus 1. As to the kind of experiment: Antiviral activity against HIV1 infected in human CEM-SS cells assessed as inhibition of viral replication and virus-induced cytopathic effect by dose-response curve analysis. As to conditions: Human immunodeficiency virus 1, CEM-SS. The data set is classed as functional.
A short description of data set [6]: Therapeutic index, ratio of TC50 for human CEM-SS cells to EC50 for HIV2 ROD infected in human CEM-SS cells. Format: cell-based. The conditions noted are these: for selectivity ratio: CEM-SS cells, read-out: TI.
Data set [7] relates to Human immunodeficiency virus 1. As to the kind of experiment: Antiviral activity against HIV1 infected in human HeLa cells expressing CD4-LTR assessed as inhibition of viral entry-related beta galactosidase expression treated for 2 hrs followed by drug wash out measured after 48 hrs by MAGI assay. As to conditions: Human immunodeficiency virus 1, HeLa. Format: functional, organism-based.

The test system of data set [8] is Human immunodeficiency virus 2. As to the kind of experiment: Antiviral activity against HIV2 infected in human CEM-SS cells assessed as inhibition of viral replication and virus-induced cytopathic effect by dose-response curve analysis. Format: functional. As to conditions: Human immunodeficiency virus 2, CEM-SS.
The target in data set [9] is Human immunodeficiency virus type 1 reverse transcriptase (Human immunodeficiency virus 1, UniProt Q72547, K103N). The data set is described as follows: Inhibition of HIV1 reverse transcriptase K103N mutant assessed as 32P-labeled GMP incorporation into nascent DNA strand.
The subject of data set [10] is Human immunodeficiency virus 2. The data set is described as follows: Inhibition of HIV2 reverse transcriptase.
The target in data set [11] is Human immunodeficiency virus type 1 reverse transcriptase (Human immunodeficiency virus 1, UniProt Q72547). As to the kind of experiment: Inhibition of wild type HIV1 reverse transcriptase assessed as 32P-labeled GMP incorporation into nascent DNA strand.
A short description of data set [12]: Therapeutic index, ratio of TC50 for human CEM-SS cells to EC50 for HIV1 RF infected in human CEM-SS cells. The data set is classed as cell-based. As to conditions: read-out: TI.
Data set [13] concerns Human immunodeficiency virus 2. As to the kind of experiment: Antiviral activity against HIV2 assessed as inhibition of viral replication treated at time points after viral entry into host cells. Format: functional, organism-based.
The nature of data set [14]: Cytotoxicity against human CEM-SS cells by XTT assay. The data set is classed as cell-based. As to conditions: read-out: TC50 (the source's name).
The subject of data set [15] is Human immunodeficiency virus 1. As to the kind of experiment: Antiviral activity against HIV1 RF infected in human CEM-SS cells assessed as inhibition of virus-induced cytopathic effect by XTT assay. The data set is classed as functional, organism-based. The conditions noted are these: Human immunodeficiency virus 1, RF.
In data set [16] the test system is Human immunodeficiency virus 2. As to the kind of experiment: Inhibition of HIV2 reverse transcriptase assessed as 32P-labeled GMP incorporation into nascent DNA strand at highest concentration.
Setting [17] is: Human immunodeficiency virus 2, ISOLATE ROD, CEM-SS, read-out: EC50.

Structures are written as SMILES. Active and inactive are the calls of the source. A value given as a limit tells only on which side of the number the result lay.

Regarding `CCc1c(C(=O)c2cc(C)cc(C)c2)n(CC2CC2)c(=O)[nH]c1=O`, the values for the CC50 in data set [1] and in [14] were 1210 µM and 1200 µM, respectively. For the same compound, the figures for the EC50 in data set [2] (setting [17]), in data set [7] and in data set [15] were 0.5 µM, 0.006 µM and 0.0096 µM, respectively. In addition, the result in data set [3] was Active. Also, the results for the selectivity ratio in data set [4], in data set [6] and in data set [12] were 197000, 2650 and 125000, respectively. Moreover, the EC99 turned out to be 0.01 µM in [5] and 100 µM in [8]. Besides, the IC50 in [9] turned out to be 1.78 µM; in data set [11] it was 0.178 µM. For the same compound, the outcome in [10], in [13] and in [16] was inactive.
Turning to `CCc1c(Oc2cc(C)cc(C)c2)n(Cc2ccccc2)c(=O)[nH]c1=O`, the CC50 in [1] and in data set [14] was 802 µM each time. The results for the EC50 in [2] (setting [17]), in data set [7] and in data set [15] were 0.3 µM, 0.08 µM and 0.0049 µM, respectively. Further, in [3], the outcome was Active. For the same compound, the selectivity ratio in data set [4] amounted to 10200; in data set [6], 2550; in [12] it was 165000. Also, the EC99 in [5] and in data set [8] was 0.3 µM in each case. For the same compound, the IC50 in data set [9] is 0.197 µM; in data set [11] it was 0.095 µM. Also, the outcome in [10], in data set [13] and in [16] was inactive.
In the case of `Cc1cc(C)cc(Sc2c(C(C)C)c(=O)[nH]c(=O)n2CC2=CCCC2)c1`, the CC50 in data set [1] and in data set [14] was 29.4 µM throughout. Also, the EC50 came out at 0.5 µM in [2] (setting [17]), 0.009 µM in data set [7] and 0.005 µM in data set [15]. The result in data set [3] was Active. Besides, the selectivity ratio in data set [4] worked out at 3270; in data set [6], 57.4; in data set [12] it was 5920. The concentration for an effect of 99% (EC99) is 0.0003 µM in [5] and 1 µM in [8]. Also, the values for the IC50 in data set [9] and in data set [11] were greater than 270 µM and 0.079 µM, respectively. For the same compound, the outcome in data set [10], in data set [13] and in data set [16] was inactive.
With `CCc1c(Sc2cc(C)cc(C)c2)n(CC2CCC2)c(=O)[nH]c1=O`, the CC50 in [1] is 509 µM; in data set [14], 27 µM. In addition, the values for the EC50 in data set [2] (setting [17]), in data set [7] and in [15] were 1.7 µM, 0.11 µM and 0.0123 µM, respectively. Besides, the outcome in data set [3] was Active. The selectivity ratio in data set [4] turned out to be 4610; in data set [6], 16.3; in data set [12], 80800. Also, the EC99 in data set [5] turned out to be 1 µM; in data set [8] it was 40 µM. Further, the IC50 was greater than 290 µM in data set [9] and 0.02 µM in data set [11]. The outcome in data set [10], in [13] and in [16] was inactive.
With `Cc1cc(C)cc(Oc2c(C(C)C)c(=O)[nH]c(=O)n2CC2CC2)c1`, the results for the CC50 in data set [1] and in data set [14] were 23.4 µM and 19.5 µM, respectively. Moreover, the EC50 in [2] (setting [17]) stood at 0.5 µM; in [7] it was 0.27 µM; in data set [15], 0.0018 µM. Also, in data set [3], the outcome was Active. In addition, the selectivity ratio was found to be 86 in [4], 40 in data set [6] and 15500 in data set [12]. For the same compound, the EC99 in data set [8] amounted to 1 µM. Also, the 50% inhibitory concentration (IC50) was 0.067 µM in data set [9] and 0.012 µM in data set [11]. Also, the outcome in data set [10], in data set [13] and in [16] was inactive.
Take `CCc1c(Oc2cc(C)cc(C)c2)n(CC2CC=CC2)c(=O)[nH]c1=O`: the CC50 in data set [1] came out at 630 µM; in data set [14], 1200 µM. In addition, the concentration giving a half-maximal response (EC50) came out at 19 µM in data set [2] (setting [17]), 0.09 µM in [7] and 0.0071 µM in [15]. The result in data set [3] was Active. The selectivity ratio in [4] was 6850; in [6] it was greater than 3.2; in data set [12], 170000. For the same compound, the EC99 is 0.2 µM in data set [5] and greater than 100 µM in data set [8]. The IC50 came out at 5.1 µM in [9] and 0.38 µM in data set [11]. Also, the outcome in [10], in data set [13] and in data set [16] was inactive.
Regarding `Cc1cc(C)cc(Oc2c(C(C)C)c(=O)[nH]c(=O)n2CCC2=CCCC2)c1`, the values for the CC50 in data set [1] and in data set [14] were 17.4 µM and 17.1 µM, respectively. The EC50 entry in [2] (cem-ss) is “Not Active”; in [7], 2.7 µM; in data set [15], 0.19 µM. The outcome in data set [3] was Active. Also, the figures for the selectivity ratio in [4] and in data set [12] were 6 and 90, respectively. In addition, the EC99 in data set [5] came to 1 µM. Also, the TI result in data set [6] (cem-ss) was “Not Active”. The IC50 came out at 176 µM in data set [9] and 1.54 µM in data set [11]. Besides, the outcome in [10], in [13] and in [16] was inactive.
With `CCc1c(Sc2cc(C)cc(C)c2)n(CCC2CCCC2)c(=O)[nH]c1=O`, the CC50 in [1] and in [14] was 29 µM in each case. In addition, the EC50 in [2] (setting [17]) came to 26.9 µM; in data set [7], 0.48 µM; in data set [15], 0.18 µM. In addition, in data set [3], the outcome was Active. Also, the figures for the selectivity ratio in [4], in data set [6] and in data set [12] were 60, 1.1 and 154, respectively. In [5], the EC99 stood at 1 µM. Besides, the IC50 in [9] is 36.8 µM; in data set [11] it was 2.19 µM. In addition, the result in data set [10], in [13] and in data set [16] was inactive.
Consider `Cc1cc(C)cc(C(=O)c2c(C(C)C)c(=O)[nH]c(=O)n2CCC2C=CCC2)c1` (stereo unspecified), for which the CC50 in data set [1] amounted to 18.3 µM; in [14], 13.7 µM. Further, the concentration giving a half-maximal response (EC50) in data set [2] (setting [17]) was 0.2 µM; in data set [7] it was 0.05 µM; in data set [15], 0.0026 µM. For the same compound, the outcome in data set [3] was Active. For the same compound, the selectivity ratio in data set [4] came to 341; in data set [6] it was 65; in data set [12], 8940. The EC99 in [5] is 1 µM. Moreover, the results for the IC50 in data set [9] and in [11] were 5.5 µM and 0.023 µM, respectively. The result in [10], in [13] and in [16] was inactive.
Turning to `CC(C)c1c(Oc2ccccc2)n(CC2CC=CC2)c(=O)[nH]c1=O`, the CC50 in data set [1] worked out at 1120 µM; in [14] it was 1100 µM. Moreover, the values for the 50% effective concentration (EC50) in data set [2] (setting [17]), in data set [7] and in data set [15] were 30.7 µM, 0.26 µM and 0.02 µM, respectively. The outcome in data set [3] was Active. Besides, the selectivity ratio in data set [4] came out at 4370; in [6] it was 37.1; in data set [12], 55200. Further, the EC99 in data set [5] turned out to be 1 µM. In addition, the values for the IC50 in [9] and in data set [11] were greater than 306 µM and 4.91 µM, respectively. Also, the outcome in [10], in data set [13] and in data set [16] was inactive.
Consider `CCc1c(Oc2cc(C)cc(C)c2)n(CC2CCC2)c(=O)[nH]c1=O`, for which the CC50 in [1] and in data set [14] was 1200 µM in each case. The concentration for a half-maximal effect (EC50) in [2] (setting [17]) is 7.2 µM; in data set [7], 0.3 µM; in data set [15], 0.022 µM. The result in data set [3] was Active. The selectivity ratio in data set [4] is 3960; in data set [6], greater than 172; in data set [12], 54200. Moreover, the concentration for an effect of 99% (EC99) in data set [5] is 1 µM; in [8] it was greater than 100 µM. In addition, the IC50 in data set [9] was determined as 0.289 µM; in [11] it was 0.235 µM. Also, the outcome in data set [10], in data set [13] and in data set [16] was inactive.
